In article PMC3969268 (Journal of medicinal chemistry, 2012):

Tests used:
[1] = molecular target: MAP-rich porcine β-tubulin (70% β-tubulin, 30% MAPs) (Sus scrofa, UniProt P02554); assay: Tubulin polymerization light-scattering; format: biochemical; details: 25 μg/mL; 2 mg/mL porcine β-tubulin, 1 mM GTP, 37 °C
[2] = molecular target: S. aureus FtsZ (SaFtsZ), wild-type (Staphylococcus aureus, UniProt P0A031); format: binding
E. coli FtsZ (EcFtsZ) = E. coli FtsZ (EcFtsZ) (Escherichia coli, UniProt P0A9A6); assay: Fluorescence anisotropy determination of compound-FtsZ binding affinity, EcFtsZ
[3] = molecular target: E. faecalis FtsZ (EfFtsZ) (Enterococcus faecalis, UniProt O08439); assay: Fluorescence anisotropy determination of compound-FtsZ binding affinity, EfFtsZ; details: EfFtsZ
S. aureus [4] = assay: Emergence of resistance, large inoculum approach; format: cell-based; details: ~3 × 10^9 CFU/mL S. aureus on TSA plates with agent at 4- to 32-fold MIC; 24 h
S. aureus [5] = details: known from literature; cited from earlier work
EcFtsZ [6] = molecular target: T1, EcFtsZ (Escherichia coli, UniProt P0A9A6); details: previously reported; cited from earlier work
EcFtsZ [7] = molecular target: T1, EcFtsZ; assay: FtsZ polymerization light-scattering; format: biochemical, E. coli; details: 40 μg/mL compound or comparator drug

Chain of S. aureus FtsZ (SaFtsZ), wild-type (P0A031 whole entry): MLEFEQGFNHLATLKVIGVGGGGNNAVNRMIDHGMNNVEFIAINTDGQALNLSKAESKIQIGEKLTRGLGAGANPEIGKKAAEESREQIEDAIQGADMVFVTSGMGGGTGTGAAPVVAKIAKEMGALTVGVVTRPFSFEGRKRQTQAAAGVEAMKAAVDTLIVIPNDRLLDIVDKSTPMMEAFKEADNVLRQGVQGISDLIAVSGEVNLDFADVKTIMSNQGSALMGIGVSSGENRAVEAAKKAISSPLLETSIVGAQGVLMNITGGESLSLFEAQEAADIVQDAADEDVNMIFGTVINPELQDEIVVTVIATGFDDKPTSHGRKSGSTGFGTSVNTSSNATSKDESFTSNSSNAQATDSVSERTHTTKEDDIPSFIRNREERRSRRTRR
Chain of E. faecalis FtsZ (EfFtsZ) (O08439 whole entry): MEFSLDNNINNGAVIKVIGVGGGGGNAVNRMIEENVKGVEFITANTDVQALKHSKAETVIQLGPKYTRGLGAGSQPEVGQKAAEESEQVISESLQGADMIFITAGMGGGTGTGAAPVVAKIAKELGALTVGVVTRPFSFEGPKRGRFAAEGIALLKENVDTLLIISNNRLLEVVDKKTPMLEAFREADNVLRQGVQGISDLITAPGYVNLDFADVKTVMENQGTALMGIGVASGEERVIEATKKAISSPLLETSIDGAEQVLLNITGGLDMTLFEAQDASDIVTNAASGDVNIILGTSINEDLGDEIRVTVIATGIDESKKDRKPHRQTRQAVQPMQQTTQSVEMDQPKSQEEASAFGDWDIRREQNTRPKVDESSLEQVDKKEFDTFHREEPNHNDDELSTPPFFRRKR
T1 sequence (P0A9A6 whole entry): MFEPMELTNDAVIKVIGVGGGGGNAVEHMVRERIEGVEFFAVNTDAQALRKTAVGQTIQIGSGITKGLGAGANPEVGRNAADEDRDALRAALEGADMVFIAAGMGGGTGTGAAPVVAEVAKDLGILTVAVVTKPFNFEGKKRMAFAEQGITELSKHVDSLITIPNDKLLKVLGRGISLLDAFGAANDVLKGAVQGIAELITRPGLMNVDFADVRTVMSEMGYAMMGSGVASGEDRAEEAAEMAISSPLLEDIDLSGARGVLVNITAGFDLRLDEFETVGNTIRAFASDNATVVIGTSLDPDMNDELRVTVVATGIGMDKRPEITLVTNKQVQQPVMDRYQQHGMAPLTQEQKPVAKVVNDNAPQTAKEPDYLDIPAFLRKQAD
Chain of E. coli FtsZ (EcFtsZ) (P0A9A6 whole entry): as above
Chain of MAP-rich porcine β-tubulin (70% β-tubulin, 30% MAPs) (P02554 whole entry): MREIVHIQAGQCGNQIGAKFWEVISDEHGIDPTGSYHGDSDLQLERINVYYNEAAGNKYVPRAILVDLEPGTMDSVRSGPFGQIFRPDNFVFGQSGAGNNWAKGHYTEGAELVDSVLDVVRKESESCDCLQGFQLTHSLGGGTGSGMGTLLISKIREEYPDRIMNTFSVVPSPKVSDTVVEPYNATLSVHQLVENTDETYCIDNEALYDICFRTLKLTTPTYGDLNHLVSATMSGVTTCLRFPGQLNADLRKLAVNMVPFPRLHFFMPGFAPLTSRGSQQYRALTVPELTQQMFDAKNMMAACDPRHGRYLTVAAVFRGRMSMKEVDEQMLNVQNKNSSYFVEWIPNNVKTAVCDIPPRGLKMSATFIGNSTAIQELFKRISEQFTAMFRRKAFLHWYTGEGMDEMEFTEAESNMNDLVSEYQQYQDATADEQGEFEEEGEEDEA
Chain of MAP-rich porcine β-tubulin (70% β-tubulin, 30% MAPs) (P02550 whole entry partner): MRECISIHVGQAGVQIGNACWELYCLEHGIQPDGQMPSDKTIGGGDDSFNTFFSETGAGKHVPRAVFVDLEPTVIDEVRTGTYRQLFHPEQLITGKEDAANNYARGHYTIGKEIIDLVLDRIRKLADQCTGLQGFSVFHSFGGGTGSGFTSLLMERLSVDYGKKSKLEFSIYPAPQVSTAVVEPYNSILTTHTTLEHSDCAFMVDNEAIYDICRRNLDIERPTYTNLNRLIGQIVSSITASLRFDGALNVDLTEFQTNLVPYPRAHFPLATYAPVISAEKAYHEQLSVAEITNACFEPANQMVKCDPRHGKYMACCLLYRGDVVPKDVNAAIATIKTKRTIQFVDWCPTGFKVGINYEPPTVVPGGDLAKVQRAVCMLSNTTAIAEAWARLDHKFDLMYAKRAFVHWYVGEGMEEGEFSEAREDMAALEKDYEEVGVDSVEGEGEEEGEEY

For `CC(=O)O[C@H]1C(=O)[C@@]2(C)[C@H]([C@H](OC(=O)c3ccccc3)[C@]3(O)C[C@H](OC(=O)[C@H](O)[C@@H](NC(=O)c4ccccc4)c4ccccc4)C(C)=C1C3(C)C)[C@]1(OC(C)=O)CO[C@@H]1C[C@@H]2O` [paclitaxel], the “impact on tubulin polymerization (A340)” value [1] was “expected stimulatory impact”.

With `CC(C)(C)c1ccc(-c2ccnc(CNC(=N)N)c2)cc1` [compound 14, 1-((4-(4-(tert-Butyl)phenyl)pyridin-2-yl)methyl)guanidine] the “binding to FtsZ (qualitative; Kd not quantifiable)” value [2] was “weak nature of the binding interactions”, the “binding to FtsZ (qualitative; Kd not quantifiable)” value (E. coli FtsZ (EcFtsZ)) was “weak nature of the binding interactions” and the “binding to FtsZ (qualitative; Kd not quantifiable)” value [3] was “weak nature of the binding interactions”. For the same compound, the “AcrAB efflux pump substrate (inferred from MIC N43 vs W4573)” value (E. coli N43 (acrA1)) was “substrates of the AcrAB efflux pump”.

In the case of `CC(C)(C)c1ccc(-c2cc(CNC(=N)N)ncn2)cc1` [compound 15, 1-((6-(4-(tert-Butyl)phenyl)pyrimidin-4-yl)methyl)guanidine], the “binding to FtsZ (qualitative; Kd not quantifiable)” value [2] is reported as “weak nature of the binding interactions”, the “binding to FtsZ (qualitative; Kd not quantifiable)” value (E. coli FtsZ (EcFtsZ)) is reported as “weak nature of the binding interactions” and the “binding to FtsZ (qualitative; Kd not quantifiable)” value [3] is reported as “weak nature of the binding interactions”. For the same compound, the “AcrAB efflux pump substrate (inferred from MIC N43 vs W4573)” value (E. coli N43 (acrA1)) was “substrates of the AcrAB efflux pump”.

For `CO[C@H]1/C=C/O[C@@]2(C)Oc3c(C)c(O)c4c(O)c(c(/C=N/N5CCN(C)CC5)c(O)c4c3C2=O)NC(=O)/C(C)=C\C=C\[C@H](C)[C@H](O)[C@@H](C)[C@@H](O)[C@@H](C)[C@H](OC(C)=O)[C@@H]1C` [rifampicin, reference compound], the “agent-containing plates on which colonies were observed” value (S. aureus [4]) is listed as 100% and the “rate of induced spontaneous mutants in S. aureus” value (S. aureus [5]) is listed as 10^−6 to 10^−8.

For `NC(=O)c1c(F)ccc(OCc2nc3cc(Cl)cnc3s2)c1F` [PC190723], the “impact on EcFtsZ polymerization” value (EcFtsZ [6]) is given as “does not affect the polymerization”.

In the case of `CC1(C)S[C@@H]2[C@H](NC(=O)[C@H](N)c3ccccc3)C(=O)N2[C@H]1C(=O)[O-].[Na+]` [ampicillin, reference compound], the “extent of stimulation of FtsZ polymerization (A340)” value (EcFtsZ [7]) is reported as “negligible impact”.
